Laboratory results as given in the supplement of paper PMC10307832.

Experiments:
Test in all cases: relative viability (nuclei count vs DMSO), 5 days (fraction); higher = more cells survive
UMC-11 = test system: UMC-11
Procedure, shortened: (§1)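 Relative viability was taken as the ratio of nuclei in treated wells to nuclei in vehicle wells. Lung cancer cell lines in 1536-well plates received compounds by pin tool one day after seeding, either one drug alone or a fixed anchor-drug dose plus five library-drug doses (not always all listed) in √10 steps. Nuclei were counted on 4× images after 5 days of treatment, and values are medians of duplicate plates.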

NCI-H1395 = test system: NCI-H1395
Procedure, shortened: as §1

NCI-H1755 = test system: NCI-H1755
Procedure, shortened: as §1

HCC-15 = test system: HCC-15
Procedure, shortened: as §1

EKVX = test system: EKVX
Procedure, shortened: as §1

HCC-44 = test system: HCC-44
Procedure, shortened: as §1

NCI-H1648 = test system: NCI-H1648
Procedure, shortened: as §1

LCLC-103H = test system: LCLC-103H
Procedure, shortened: as §1

O=c1cc(N2CCOCC2)oc2c(-c3cccc4c3sc3ccccc34)cccc12 + CC(=O)c1c(C)c2cnc(Nc3ccc(N4CCNCC4)cn3)nc2n(C2CCCC2)c1=O [Palbociclib] (partner 0.5 µM)
relative viability (UMC-11; first compound 0.01 µM): 0.309 | relative viability (UMC-11; first compound 0.03162 µM): 0.294 | relative viability (UMC-11; first compound 0.1 µM): 0.32 | relative viability (UMC-11; first compound 0.3162 µM): 0.347 | relative viability (UMC-11; first compound 1 µM): 0.324 | relative viability (NCI-H1395; first compound 0.03162 µM): 0.547 | relative viability (NCI-H1395; first compound 0.1 µM): 0.634 | relative viability (NCI-H1395; first compound 0.3162 µM): 0.631 | relative viability (NCI-H1395; first compound 1 µM): 0.637 | relative viability (NCI-H1755; first compound 0.01 µM): 0.475 | relative viability (NCI-H1755; first compound 0.03162 µM): 0.455 | relative viability (NCI-H1755; first compound 0.1 µM): 0.488 | relative viability (NCI-H1755; first compound 0.3162 µM): 0.457 | relative viability (NCI-H1755; first compound 1 µM): 0.456 | relative viability (HCC-15; first compound 0.01 µM): 0.73 | relative viability (HCC-15; first compound 0.03162 µM): 0.709 | relative viability (HCC-15; first compound 0.1 µM): 0.891 | relative viability (HCC-15; first compound 0.3162 µM): 0.624 | relative viability (HCC-15; first compound 1 µM): 0.727 | relative viability (EKVX; first compound 0.01 µM): 0.376 | relative viability (EKVX; first compound 0.03162 µM): 0.363 | relative viability (EKVX; first compound 0.1 µM): 0.484 | relative viability (EKVX; first compound 0.3162 µM): 0.43 | relative viability (EKVX; first compound 1 µM): 0.332 | relative viability (HCC-44; first compound 0.01 µM): 1.01 | relative viability (HCC-44; first compound 0.03162 µM): 1.02 | relative viability (HCC-44; first compound 0.1 µM): 0.955 | relative viability (HCC-44; first compound 0.3162 µM): 0.991 | relative viability (HCC-44; first compound 1 µM): 1.02 | relative viability (NCI-H1648; first compound 0.03162 µM): 0.261 | relative viability (NCI-H1648; first compound 0.1 µM): 0.273 | relative viability (NCI-H1648; first compound 0.3162 µM): 0.284 | relative viability (NCI-H1648; first compound 1 µM): 0.292 | relative viability (LCLC-103H; first compound 0.01 µM): 0.446 | relative viability (LCLC-103H; first compound 0.03162 µM): 0.439 | relative viability (LCLC-103H; first compound 0.1 µM): 0.513 | relative viability (LCLC-103H; first compound 0.3162 µM): 0.514 | relative viability (LCLC-103H; first compound 1 µM): 0.43

CCN(CC)CCCCNc1ncc2cc(-c3cc(OC)cc(OC)c3)c(NC(=O)NC(C)(C)C)nc2n1 + CC(=O)c1c(C)c2cnc(Nc3ccc(N4CCNCC4)cn3)nc2n(C2CCCC2)c1=O [Palbociclib] (partner 0.5 µM)
relative viability (UMC-11; first compound 0.01 µM): 0.338 | relative viability (UMC-11; first compound 0.03162 µM): 0.305 | relative viability (UMC-11; first compound 0.1 µM): 0.351 | relative viability (UMC-11; first compound 0.3162 µM): 0.313 | relative viability (UMC-11; first compound 1 µM): 0.343 | relative viability (NCI-H1395; first compound 0.01 µM): 0.637 | relative viability (NCI-H1395; first compound 0.03162 µM): 0.59 | relative viability (NCI-H1395; first compound 0.1 µM): 0.661 | relative viability (NCI-H1395; first compound 0.3162 µM): 0.546 | relative viability (NCI-H1395; first compound 1 µM): 0.448 | relative viability (NCI-H1755; first compound 0.01 µM): 0.474 | relative viability (NCI-H1755; first compound 0.03162 µM): 0.448 | relative viability (NCI-H1755; first compound 0.1 µM): 0.462 | relative viability (NCI-H1755; first compound 0.3162 µM): 0.472 | relative viability (NCI-H1755; first compound 1 µM): 0.459 | relative viability (HCC-15; first compound 0.01 µM): 0.82 | relative viability (HCC-15; first compound 0.03162 µM): 0.826 | relative viability (HCC-15; first compound 0.1 µM): 0.826 | relative viability (HCC-15; first compound 0.3162 µM): 0.797 | relative viability (HCC-15; first compound 1 µM): 0.729 | relative viability (EKVX; first compound 0.03162 µM): 0.406 | relative viability (EKVX; first compound 0.1 µM): 0.31 | relative viability (EKVX; first compound 0.3162 µM): 0.817 | relative viability (EKVX; first compound 1 µM): 0.413 | relative viability (HCC-44; first compound 0.01 µM): 1.02 | relative viability (HCC-44; first compound 0.03162 µM): 1.07 | relative viability (HCC-44; first compound 0.1 µM): 0.987 | relative viability (HCC-44; first compound 0.3162 µM): 1.04 | relative viability (HCC-44; first compound 1 µM): 1 | relative viability (NCI-H1648; first compound 0.01 µM): 0.288 | relative viability (NCI-H1648; first compound 0.03162 µM): 0.292 | relative viability (NCI-H1648; first compound 0.1 µM): 0.237 | relative viability (NCI-H1648; first compound 0.3162 µM): 0.274 | relative viability (NCI-H1648; first compound 1 µM): 0.238 | relative viability (LCLC-103H; first compound 0.01 µM): 0.473 | relative viability (LCLC-103H; first compound 0.03162 µM): 0.423 | relative viability (LCLC-103H; first compound 0.1 µM): 0.457 | relative viability (LCLC-103H; first compound 0.3162 µM): 0.48 | relative viability (LCLC-103H; first compound 1 µM): 0.466

O=c1cc(-c2cccc3c2Sc2ccccc2S3)oc(N2CCOCC2)c1 + CC(=O)c1c(C)c2cnc(Nc3ccc(N4CCNCC4)cn3)nc2n(C2CCCC2)c1=O [Palbociclib] (partner 0.5 µM)
relative viability (UMC-11; first compound 0.08 µM): 0.338 | relative viability (UMC-11; first compound 0.253 µM): 0.328 | relative viability (UMC-11; first compound 0.8 µM): 0.346 | relative viability (UMC-11; first compound 2.53 µM): 0.326 | relative viability (UMC-11; first compound 8 µM): 0.345 | relative viability (NCI-H1395; first compound 0.08 µM): 0.62 | relative viability (NCI-H1395; first compound 0.253 µM): 0.539 | relative viability (NCI-H1395; first compound 0.8 µM): 0.568 | relative viability (NCI-H1395; first compound 2.53 µM): 0.574 | relative viability (NCI-H1395; first compound 8 µM): 0.638 | relative viability (NCI-H1755; first compound 0.08 µM): 0.436 | relative viability (NCI-H1755; first compound 0.253 µM): 0.464 | relative viability (NCI-H1755; first compound 0.8 µM): 0.463 | relative viability (NCI-H1755; first compound 2.53 µM): 0.383 | relative viability (NCI-H1755; first compound 8 µM): 0.409 | relative viability (HCC-15; first compound 0.08 µM): 0.796 | relative viability (HCC-15; first compound 0.253 µM): 0.778 | relative viability (HCC-15; first compound 0.8 µM): 0.79 | relative viability (HCC-15; first compound 2.53 µM): 0.695 | relative viability (HCC-15; first compound 8 µM): 0.636 | relative viability (EKVX; first compound 0.08 µM): 0.582 | relative viability (EKVX; first compound 0.253 µM): 0.657 | relative viability (EKVX; first compound 0.8 µM): 0.345 | relative viability (EKVX; first compound 2.53 µM): 0.321 | relative viability (EKVX; first compound 8 µM): 0.399 | relative viability (HCC-44; first compound 0.08 µM): 0.965 | relative viability (HCC-44; first compound 0.253 µM): 0.918 | relative viability (HCC-44; first compound 0.8 µM): 0.919 | relative viability (HCC-44; first compound 2.53 µM): 0.958 | relative viability (HCC-44; first compound 8 µM): 0.962 | relative viability (NCI-H1648; first compound 0.253 µM): 0.324 | relative viability (NCI-H1648; first compound 0.8 µM): 0.281 | relative viability (NCI-H1648; first compound 8 µM): 0.302 | relative viability (LCLC-103H; first compound 0.08 µM): 0.461 | relative viability (LCLC-103H; first compound 0.253 µM): 0.51 | relative viability (LCLC-103H; first compound 0.8 µM): 0.477 | relative viability (LCLC-103H; first compound 2.53 µM): 0.46 | relative viability (LCLC-103H; first compound 8 µM): 0.448
